# Ends that are not written are not given here.
# Tests used:
# thrombin [1] = molecular target: T1, thrombin (Homo sapiens, UniProt P00734); assay: Accelerated stability of sprayed thrombin with para-aminobenzamidine (thrombin activity on Stago Compact); format: biochemical; conditions: para-aminobenzamidine about 3 mM in about 5 mM citrate or isocitrate pH about 6.1; sealed tubes at about 43° C., about 75% relative humidity; compared to citrates alone; FIG. 6, FIG. 7
# T1 construct: In preferred embodiments, thrombin is alpha-thrombin
# Description: The coagulation controlling agent para-aminobenzamidine was evaluated to determine if it improved the stability of sprayed thrombin under accelerated stability conditions. Without wishing to be bound by any particular theory, it is believed that para-aminobenzamidine stabilizes the spray-dried thrombin under conditions of extremely high humidity, where thrombin autolytic degradation can be rapid, even at room temperature.
# Thrombin was prepared in about 5 mM citrate or isocitrate at a pH of about 6.1. Para-aminobenzamidine was added at a concentration of about 3 mM. About 16 μL of this solution was sprayed into 13×100 mm PET tubes. The tubes were dried by forced hot air, and evacuated. Sealed tubes were then placed in a controlled environmental chamber previously equilibrated to about 43° C. and about 75% relative humidity. At various time intervals, the tubes were removed and evaluated for thrombin activity on the Stago Compact coagulation analyzer. The error bars indicate the 95% confidence interval for the thrombin activity with 5 replicates.
# [2] = test system: freshly drawn human blood; assay: Visual scoring of fibrin mass in serum from blood clotted in thrombin/protamine tubes; conditions: protamine about 0.5 mg/mL; FIG. 2
# Description: Protamine sulfate was first resuspended in about 0.5 M hydrochloric acid at a concentration of about 250 mg/mL. This solution was then titrated to a pH of about 6 with 5 N sodium hydroxide. This titration to about pH 6 was performed immediately since prolonged exposure of protamine to low pH, it was believed, would result in hydrolysis and loss of activity. It is also believed that more dilute solutions of hydrochloric acid could be used for preparing the protamine solution.
# The protamine solution was then mixed in a ratio of about 1:1 with a solution of about 1250 U/mL of thrombin in about 40 mM sodium citrate at about pH 6.0, containing about 20 mg/mL of a siloxane alkoxylate surfactant, and 2 mg/mL polyvinylpyrrolidone (PVP).
# The resulting reagent was filtered and sprayed in 20 μL shots into 13×100 mm polyethyleneterephthalate (PET) tubes. The tubes were then dried by forced hot air, and evacuated and stoppered.
# Tubes were filled with freshly drawn human blood and allowed to clot for between about 1 to about 3.5 minutes (randomized) and then centrifuged. The resulting serum was scored by visual assessment for the presence of a “fibrin mass” in the serum compartment on a scale of 0 to 3, with 3 being the most severe.
# thrombin [3] = molecular target: T1, thrombin; assay: Accelerated stability of sprayed thrombin with protamine (thrombin activity on Stago Compact); format: biochemical; conditions: about 45% relative humidity
# Description: A mixture of thrombin (about 1250 U/mL), protamine (about 125 mg/mL or about 62.5 mg/mL), and a siloxane alkoxylate surfactant was prepared in about 20 mM citrate at a pH of about 6.0. About 20 μL of this mixture was sprayed into 13×100 mm PET tubes. The tubes were dried by forced hot air, evacuated, and stored in the refrigerator. At the initiation of the study, the tubes were uncapped and placed in a controlled environmental chamber previously equilibrated to about 50° C. and about 45% relative humidity. At various time intervals, tubes were removed and evaluated for thrombin activity on the Stago Compact coagulation analyzer. The error bars indicate the 95% confidence interval for the thrombin activity with 5 replicates.
# When the thrombin activity of subsequent time points were normalized on the initial value, the resulting curves could be used to compare the relative stability of each formulation (see FIG. 5).
# [4] = test system: reconstituted commercial lyophilized human plasma; assay: Clotting time of plasma with thrombin/protamine solutions on Stago Compact coagulation analyzer; format: biochemical; conditions: thrombin and protamine in about 20 mM citrate pH about 6, mixed about 1:1 with plasma; FIG. 3
# Description: Solutions of thrombin and protamine in about 20 mM of citrate at a pH of about 6 were mixed in a ratio of about 1:1 with reconstituted commercial lyophilized human plasma and tested on a Stago Compact coagulation analyzer. The resulting clotting times were measured as a function of thrombin and protamine concentration for a given thrombin concentration. The concentrations listed on the graph of FIG. 3 represent the thrombin/protamine solutions before being mixed with the plasma.
compound,measurement,setting,value
N=C(N)c1ccc(N)cc1 [para-aminobenzamidine],thrombin stability over time,thrombin [1],preserves thrombin stability over time
Protamine sulfate (PRRRRSSSRPVRRRRRPRVSRRRRRRGGRRRR; also: sulfate salt) [coagulation controlling agent; ID; NO; 1 in some embodiments],performance of the tube (fibrin mass formation),[2],improved the performance of the tube dramatically
same,relative stability (thrombin activity normalized on the initial value),"thrombin [3]; about 50° C., compared with thrombin formulations without protamine, FIG. 5",more stable
same,thrombin activity over time,"thrombin [3]; thrombin about 1250 U/mL, protamine about 125 or about 62.5 mg/mL, sprayed and dried in PET tubes, uncapped at about 50° C., FIG. 4",better with the protamine than without it
same,clotting time as a function of protamine concentration,[4],decreasing clotting time with increasing protamine concentration

# Source: patent US9949473B2, “Coagulation controlling agents and devices comprising the same” (Becton, Dickinson and Company, priority 2011, dated 2018)
